US20230140216A1, “COMBINATION THERAPY FOR TREATING MPS1” (GAIN THERAPEUTICS SA, priority 2020, published 2023)

Biological target: T1, Recombinant human α-L-iduronidase protein (Homo sapiens, UniProt P35475)
T1 construct: purchased R&D
T1 sequence (P35475 28-653): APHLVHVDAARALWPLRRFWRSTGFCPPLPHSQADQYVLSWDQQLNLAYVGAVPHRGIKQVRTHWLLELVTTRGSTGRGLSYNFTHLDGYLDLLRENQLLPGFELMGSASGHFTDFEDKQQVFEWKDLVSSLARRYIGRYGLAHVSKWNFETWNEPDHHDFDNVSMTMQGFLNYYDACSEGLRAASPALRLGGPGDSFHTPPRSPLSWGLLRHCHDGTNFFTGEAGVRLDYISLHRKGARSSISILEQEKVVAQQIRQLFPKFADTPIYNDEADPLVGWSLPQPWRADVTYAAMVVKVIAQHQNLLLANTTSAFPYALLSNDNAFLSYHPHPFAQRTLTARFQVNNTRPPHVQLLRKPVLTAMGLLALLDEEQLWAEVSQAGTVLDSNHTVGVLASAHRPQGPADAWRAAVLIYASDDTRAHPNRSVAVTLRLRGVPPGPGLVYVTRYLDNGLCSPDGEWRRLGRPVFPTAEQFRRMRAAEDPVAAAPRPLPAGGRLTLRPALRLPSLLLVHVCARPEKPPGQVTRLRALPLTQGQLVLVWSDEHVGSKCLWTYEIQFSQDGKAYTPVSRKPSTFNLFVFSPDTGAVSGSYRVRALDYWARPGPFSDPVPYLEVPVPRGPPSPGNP
Assay: Differential scanning fluorimetry (DSF) thermal stabilization;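 also: Classes count stabilization of α-L-iduronidase despite the GALC label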
Format: binding
Conditions: ΔTm class
Experimental: The capacity of Compounds of the Disclosure to stabilize α-L-iduronidase was assessed by differential scanning fluorimetry technique. The thermal denaturation of purified human native enzyme was monitored in the presence of the extrinsic fluorescent probe SYPRO Orange (Sigma-Aldrich, St. Louis, MO). The tested compounds were dissolved in 100% DMSO and diluted into the protein buffer to achieve final concentrations of 1% DMSO.
Recombinant human α-L-iduronidase protein (purchased from R&D) 12.5 µL of 1.5 µM in 100 mM Hepes 20 mM MgCl2 pH 7 (protein final concentration 0.75 µM) with Sypro Orange 10X and 12.5 µl of the different compound solutions were dispensed into 96-well PCR-plates. The intensity of SYPRO Orange fluorescence after a systematic increase of temperature was monitored in the Roche LightCycler® 480 II device (Roche Diagnostics).
The capacity to stabilize α-L-iduronidase is denoted as follows: • ΔTm GALC > 1 is shown as A; • ΔTm GALC between 0.5 and 1 is shown as B; • ΔTm GALC between 0.1 and 0.5 is shown as C; and • ΔTm GALC less than 0.1 is shown as D.

[1] = commercially available Examples 8-37

CN(CC(=O)N(C)c1ccccc1Cl)Cc1nc(O)c2cnn(-c3ccccc3)c2n1 [Example 1, N-(2-chlorophenyl)-2-(((4-hydroxy-1-phenyl-1H-pyrazolo[3,4-d]pyrimidin-6-yl)methyl)(methyl)amino)-N-methylacetamide]
DSF Activity range (synthetized Examples 1-7): A (ΔTm GALC > 1 is shown as A)

Cc1ccccc1-n1ncc2c(O)nc(CN(C)CC(=O)N(C)c3ccccc3Cl)nc21 [Example 2, N-(2-chlorophenyl)-2-(((4-hydroxy-1-o-tolyl-1H-pyrazolo[3,4-d]pyrimidin-6-yl)methyl)(methyl)amino)-N-methylacetamide]
DSF Activity range (synthetized Examples 1-7): C (ΔTm GALC between 0.1 and 0.5 is shown as C)

Cc1cccc(-n2ncc3c(O)nc(CN(C)CC(=O)N(C)c4ccccc4Cl)nc32)c1 [Example 3, N-(2-chlorophenyl)-2-(((4-hydroxy-1-m-tolyl-1H-pyrazolo[3,4-d]pyrimidin-6-yl)methyl)(methyl)amino)-N-methylacetamide]
DSF Activity range (synthetized Examples 1-7): C (ΔTm GALC between 0.1 and 0.5 is shown as C)

Cc1ccc(-n2ncc3c(O)nc(CN(C)CC(=O)N(C)c4ccccc4Cl)nc32)cc1 [Example 4, N-(2-chlorophenyl)-2-(((4-hydroxy-1-p-tolyl-1H-pyrazolo[3,4-d]pyrimidin-6-yl)methyl)(methyl)amino)-N-methylacetamide]
DSF Activity range (synthetized Examples 1-7): B (ΔTm GALC between 0.5 and 1 is shown as B)

COc1ccccc1-n1ncc2c(O)nc(CN(C)CC(=O)N(C)c3ccccc3Cl)nc21 [Example 5, N-(2-chlorophenyl)-2-(((4-hydroxy-1-(2-methoxyphenyl)-1H-pyrazolo[3,4-d]pyrimidin-6-yl)methyl)(methyl)amino)-N-methylacetamide]
DSF Activity range (synthetized Examples 1-7): D (ΔTm GALC less than 0.1 is shown as D)

COc1cccc(-n2ncc3c(O)nc(CN(C)CC(=O)N(C)c4ccccc4Cl)nc32)c1 [Example 6, N-(2-chlorophenyl)-2-(((4-hydroxy-1-(3-methoxyphenyl)-1H-pyrazolo[3,4-d]pyrimidin-6-yl)methyl)(methyl)amino)-N-methylacetamide]
DSF Activity range (synthetized Examples 1-7): B (ΔTm GALC between 0.5 and 1 is shown as B)

COc1ccc(-n2ncc3c(O)nc(CN(C)CC(=O)N(C)c4ccccc4Cl)nc32)cc1 [Example 7, N-(2-chlorophenyl)-2-(((4-hydroxy-1-(4-methoxyphenyl)-1H-pyrazolo[3,4-d]pyrimidin-6-yl)methyl)(methyl)amino)-N-methylacetamide]
DSF Activity range (synthetized Examples 1-7): C (ΔTm GALC between 0.1 and 0.5 is shown as C)

CN(CC(=O)Nc1cccc(F)c1)Cc1nc2ccsc2c(=O)[nH]1 [Example 9, N-(3-fluorophenyl)-2-(methyl((4-oxo-3,4-dihydrothieno[3,2-d]pyrimidin-2-yl)methyl)amino)acetamide]
DSF Activity range [1]: A (ΔTm GALC > 1 is shown as A)

CCN(CC(=O)Nc1cccc(OC)c1)Cc1nc2ccsc2c(=O)[nH]1 [Example 10, 2-(ethyl((4-oxo-3,4-dihydrothieno[3,2-d]pyrimidin-2-yl)methyl)amino)-N-(3-methoxyphenyl)acetamide]
DSF Activity range [1]: C (ΔTm GALC between 0.1 and 0.5 is shown as C)

CCCN(CC(=O)Nc1ccc(F)cc1F)Cc1nc2ccsc2c(=O)[nH]1 [Example 11, N-(2,4-difluorophenyl)-2-(((4-oxo-3,4-dihydrothieno[3,2-d]pyrimidin-2-yl)methyl)(propyl)amino)acetamide]
DSF Activity range [1]: B (ΔTm GALC between 0.5 and 1 is shown as B)

CN(CC(=O)Nc1ccccc1Cl)Cc1nc2ccsc2c(=O)[nH]1 [Example 12, N-(2-chlorophenyl)-2-(methyl((4-oxo-3,4-dihydrothieno[3,2-d]pyrimidin-2-yl)methyl)amino)acetamide]
DSF Activity range [1]: B (ΔTm GALC between 0.5 and 1 is shown as B)

CCN(CC(=O)NC(C)(C)C)Cc1nc2ccsc2c(=O)[nH]1 [Example 13, N-(tert-butyl)-2-(ethyl((4-oxo-3,4-dihydrothieno[3,2-d]pyrimidin-2-yl)methyl)amino)acetamide]
DSF Activity range [1]: D (ΔTm GALC less than 0.1 is shown as D)

Cc1csc(NC(=O)CN(C)Cc2nc3ccsc3c(=O)[nH]2)n1 [Example 14, 2-(methyl((4-oxo-3,4-dihydrothieno[3,2-d]pyrimidin-2-yl)methyl)amino)-N-(4-methylthiazol-2-yl)acetamide]
DSF Activity range [1]: A (ΔTm GALC > 1 is shown as A)

CCCN(CC(=O)N1CCc2ccccc21)Cc1nc2ccsc2c(=O)[nH]1 [Example 15, 2-(((2-(indolin-1-yl)-2-oxoethyl)(propyl)amino)methyl)thieno[3,2-d]pyrimidin-4(3H)-one]
DSF Activity range [1]: D (ΔTm GALC less than 0.1 is shown as D)

CCN(CC(=O)Nc1c(Cl)cccc1Cl)Cc1nc2ccccc2c(=O)[nH]1 [Example 16, N-(2,6-dichlorophenyl)-2-(ethyl((4-oxo-3,4-dihydroquinazolin-2-yl)methyl)amino)acetamide]
DSF Activity range [1]: B (ΔTm GALC between 0.5 and 1 is shown as B)

COCCN(CC(=O)Nc1ccc(C)cc1)Cc1nc2ccccc2c(=O)[nH]1 [Example 17, 2-((2-methoxyethyl)((4-oxo-3,4-dihydroquinazolin-2-yl)methyl)amino)-N-(p-tolyl)acetamide]
DSF Activity range [1]: B (ΔTm GALC between 0.5 and 1 is shown as B)

CN(CC(=O)Nc1cccc2ccccc12)Cc1nc2ccccc2c(=O)[nH]1 [Example 18, 2-(methyl((4-oxo-3,4-dihydroquinazolin-2-yl)methyl)amino)-N-(naphthalen-1-yl)acetamide]
DSF Activity range [1]: A (ΔTm GALC > 1 is shown as A)

CCN(CC(=O)Nc1ccccc1)Cc1nc2ccccc2c(=O)[nH]1 [Example 19, 2-(ethyl((4-oxo-3,4-dihydroquinazolin-2-yl)methyl)amino)-N-phenylacetamide]
DSF Activity range [1]: C (ΔTm GALC between 0.1 and 0.5 is shown as C)

CCN(CC(=O)Nc1ccccc1C)Cc1nc2ccccc2c(=O)[nH]1 [Example 20, 2-(ethyl((4-oxo-3,4-dihydroquinazolin-2-yl)methyl)amino)-N-(o-tolyl)acetamide]
DSF Activity range [1]: B (ΔTm GALC between 0.5 and 1 is shown as B)

CN(CC(=O)Nc1cccc2ncccc12)Cc1nc2ccccc2c(=O)[nH]1 [Example 21, 2-(methyl((4-oxo-3,4-dihydroquinazolin-2-yl)methyl)amino)-N-(quinolin-5-yl)acetamide]
DSF Activity range [1]: B (ΔTm GALC between 0.5 and 1 is shown as B)

CCN(CC(=O)Nc1ccccc1Cl)Cc1nc2ccccc2c(=O)[nH]1 [Example 22, N-(2-chlorophenyl)-2-(ethyl((4-oxo-3,4-dihydroquinazolin-2-yl)methyl)amino)acetamide]
DSF Activity range [1]: C (ΔTm GALC between 0.1 and 0.5 is shown as C)

Cc1cccc(C)c1NC(=O)CN(C)Cc1nc2ccccc2c(=O)[nH]1 [Example 23, N-(2,6-dimethylphenyl)-2-(methyl((4-oxo-3,4-dihydroquinazolin-2-yl)methyl)amino)acetamide]
DSF Activity range [1]: B (ΔTm GALC between 0.5 and 1 is shown as B)

O=C(Nc1ccccc1)C1CCCN1Cc1nc2ccccc2c(=O)[nH]1 (stereo not shown) [Example 24, 1-((4-oxo-3,4-dihydroquinazolin-2-yl)methyl)-N-phenylpyrrolidine-2-carboxamide]
DSF Activity range [1]: B (ΔTm GALC between 0.5 and 1 is shown as B)

CCN(CC(=O)Nc1cccc2c1N=S=N2)Cc1nc2ccccc2c(=O)[nH]1 [Example 25, N-(benzo[c][1,2,5]thiadiazol-4-yl)-2-(ethyl((4-oxo-3,4-dihydroquinazolin-2-yl)methyl)amino)acetamide]
DSF Activity range [1]: B (ΔTm GALC between 0.5 and 1 is shown as B)

CCN(CC(=O)NCC(C)C)Cc1nc2ccccc2c(=O)[nH]1 [Example 26, 2-(ethyl((4-oxo-3,4-dihydroquinazolin-2-yl)methyl)amino)-N-isobutylacetamide]
DSF Activity range [1]: B (ΔTm GALC between 0.5 and 1 is shown as B)

CN(CC(=O)N(C)c1ccccc1)Cc1nc2ccccc2c(=O)[nH]1 [Example 27, N-methyl-2-(methyl((4-oxo-3,4-dihydroquinazolin-2-yl)methyl)amino)-N-phenylacetamide]
DSF Activity range [1]: B (ΔTm GALC between 0.5 and 1 is shown as B)

CCN(C(=O)CN(C)Cc1nc2ccccc2c(=O)[nH]1)c1cccc2ccccc12 [Example 28, N-ethyl-2-(methyl((4-oxo-3,4-dihydroquinazolin-2-yl)methyl)amino)-N-(naphthalen-1-yl)acetamide]
DSF Activity range [1]: B (ΔTm GALC between 0.5 and 1 is shown as B)

CN(CC(=O)N1CCCc2ccccc21)Cc1nc2ccccc2c(=O)[nH]1 [Example 29, 2-(((2-(3,4-dihydroquinolin-1(2H)-yl)-2-oxoethyl)(methyl)amino)methyl)quinazolin-4(3H)-one]
DSF Activity range [1]: B (ΔTm GALC between 0.5 and 1 is shown as B)
